# Tests used:
# TTBK1 = target: T1, TTBK1 (Homo sapiens, UniProt Q5TCY1); assay: TTBK biochemical (recombinant kinase) assay
# T1 construct: TTBK1 1-479aa; SignalChem Catalog # T17-11G-05; purchased SignalChem T17-11G-05
# Method: Final Kinase Activity conditions; 400 pM TTBK1 at ambient temperature in 25 mM Hepes, pH 7.5, 50 mM NaCl, 10 mM MgCl2, 0.02% Brij-35, 1 mM DTT, 10 uM ATP and 100 nM Ulight TOPO IIa peptide substrate ([sequence]). After a 2 hour incubation at 23 °C, the kinase reaction was quenched with 30 ul of 60 mM EDTA, and 2 nM Eu-anti- FDEKpTDDEDF antibody in 1X Lance Delfia Detection Buffer and incubated for one hour prior to detection with the EnVision Multilabel Reader (PerkinElmer). […] For compound inhibition, 15 ul of 800 pM TTBK1 was preincubated for 30 minutes with 300 nl of 100x compound stock in DMSO before initiation of the activity by addition of 15 ul of 2x Substrate Stock (200 nM peptide and 20 uM ATP).
# [1] = test system: tau phosphorylation following TTBK1 overexpression in HEK293 cells; assay: Western blot of tau phosphorylation in HEK293 cells overexpressing TTBK1 and human Tau (2N4R) plus or minus staurosporine; format: cell-based; conditions: 10μM, one hour
# From the text: However, it is unclear whether TTBK1 directly phosphorylates tau at these sites or whether it enhances the phosphorylation of tau through the activation of other kinases. […]; Fig 1A). […]. TTBK1 overexpression led to the increase in tau phosphorylation at several sites; some previously identified including S422, AT8 ([…]) and S198 as well as additional novel sites like AT180 (Thr231), PHF-13 (S396), S214, and S356 (Fig 1B and 1C). […].
# Fig 1 TTBK1 overexpression leads to direct and indirect phosphorylation of Tau at disease-relevant sites. (A) Phylogenetic tree of the human kinome illustrating the biochemical IC50 for Staurosporine against various kinases (data compiled from Davis et al., 2011 in addition to internal data on the affinity of Staurosporine for TTBK1/TTBK2). […] TTBK1 overexpression caused a dramatic increase in the overall level of tau phosphorylation. […]. HEK293 cells obtained from American Type Culture Collection (ATCC, Manassas, VA) were cultured in Dulbecco's modified Eagle's medium (DMEM) supplemented with 10% fetal bovine serum (FBS), 10 units/ml penicillin, and 10μg/ml streptomycin (all reagents were purchased from Gibco, Waltham, MA). Cell cultures were maintained in a humidified 5% (v/v) CO2/air environment at 37°C. When the cells reached 50–80% confluence, they were transfected with a complex consisting of a 3:1 ratio of FuGENE 6 Transfection Reagent (Promega, Madison, WI) and plasmid DNA. Plasmid DNA was balanced out across reactions using an empty plasmid so that the same amount of DNA was added per well. This transfection complex was prepared following the manufacturers protocol and added directly to the cell media for 24 or 48 hours prior to lysis.
# Samples were lysed in Pierce RIPA lysis and extraction buffer (Thermo Fisher Scientific, Waltham, MA) supplemented with 1% Halt protease and phosphatase inhibitor cocktail (Thermo Fisher Scientific, Waltham, MA) and centrifuged at 14000 x g for 20 min at 4°C to clear the lysate. Protein concentrations were determined using the Direct Detect Infrared Spectrometer (EMD Millipore Corp., Burlington, MA) and 10μg of each sample was denatured in 6X SDS sample buffer (Boston Bioproducts, Ashland, MA) for 7 minutes at 90°C. Proteins were loaded into a Criterion 7.5% tris-glycine gel (Bio-Rad, Hercules, CA) and separated by SDS-PAGE at 120V for 120 minutes. The gel was transferred to an IBlot2 nitrocellulose membrane (Invitrogen, Carlsbad, CA), blocked with TBST blocking buffer (Li-cor Biosciences, Lincoln, NE) for 1 hour, and washed three times with TBST. The membrane was probed with primary antibodies (1:1000 dilution) in antibody dilution buffer (1:1 TBST blocking buffer and 1X TBST) overnight at 4°C. The following antibodies were used for immunoblotting: TTBK1 (Cat# PA5-20686, Invitrogen, Carlsbad, CA), Tau-5 (Cat# ab80579, Abcam, Cambridge, UK), phospho-Tau S422 (Cat# ab79415, Abcam, Cambridge, UK), S198 (Cat# ab79540, Abcam, Cambridge, UK), AT8 S202/T205 (Cat# MN1020, Invitrogen, Carlsbad, CA), S214 (Cat# ab170892, Abcam, Cambridge, UK), AT180 T231 (Cat# MN1040, Invitrogen, Carlsbad, CA), S262 (Cat# ab131354, Abcam, Cambridge, UK), S356 (Cat# ab75603, Abcam, Cambridge, UK), S396 (Cat# ab109390, Abcam, Cambridge, UK), GAPDH (Cat# 5174S, Cell Signaling Technology, Danvers, MA), and β-actin (Cat# 926–42212, Li-cor Biosciences, Lincoln, NE). The blot was then washed in triplicate with TBST and incubated for 1 hour with secondary antibody (1:10,000 dilution of IRDye 800 anti-mouse IgG and IRDye 680 anti-rabbit IgG, Li-cor Biosciences, Lincoln, NE) in antibody dilution buffer. After a final triplicate wash with TBST, the blot was visualized using the Odyssey CLx imaging system (Li-cor Biosciences, Lincoln, NE).
# T1 sequence (Q5TCY1 1-479): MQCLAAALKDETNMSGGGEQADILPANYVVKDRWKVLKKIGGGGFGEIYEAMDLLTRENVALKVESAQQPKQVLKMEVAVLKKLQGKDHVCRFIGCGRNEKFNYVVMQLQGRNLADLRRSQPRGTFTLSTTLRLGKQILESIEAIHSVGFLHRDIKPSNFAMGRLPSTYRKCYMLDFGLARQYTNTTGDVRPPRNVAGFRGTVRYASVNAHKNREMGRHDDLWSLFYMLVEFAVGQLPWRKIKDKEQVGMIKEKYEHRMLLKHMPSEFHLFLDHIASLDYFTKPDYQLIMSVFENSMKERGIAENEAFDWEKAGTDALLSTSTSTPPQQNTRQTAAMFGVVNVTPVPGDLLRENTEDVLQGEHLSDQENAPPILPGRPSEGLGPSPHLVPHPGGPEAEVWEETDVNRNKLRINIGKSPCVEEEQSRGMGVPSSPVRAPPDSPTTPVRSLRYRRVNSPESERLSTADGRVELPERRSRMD
smiles,measurement,setting,value
"CN[C@@H]1C[C@H]2O[C@@](C)([C@@H]1OC)n1c3ccccc3c3c4c(c5c6ccccc6n2c5c31)C(=O)NC4 [Staurosporine, staurosporine]",IC50,TTBK1,> 30 µM
same,increase in tau phosphorylation at AT8 following TTBK1 overexpression,[1],not inhibited
same,increase in tau phosphorylation at S198 following TTBK1 overexpression,[1],not inhibited
same,increase in tau phosphorylation at S422 following TTBK1 overexpression,[1],not inhibited
same,phosphorylation of tau at AT180,[1],reduced
same,phosphorylation of tau at S214,[1],reduced
same,phosphorylation of tau at S356,[1],reduced
same,phosphorylation of tau at S396,[1],reduced
